Broadly, the IC50 is the concentration at which inhibition is half-maximal. What is called kinact is the maximal first-order rate at which the target is inactivated.

What all share (assay type): ADME, Microsome
The target in data set [1] is T1, Cytochrome P450 2A6 (Homo sapiens, UniProt P11509).
T1 sequence (P11509 whole entry): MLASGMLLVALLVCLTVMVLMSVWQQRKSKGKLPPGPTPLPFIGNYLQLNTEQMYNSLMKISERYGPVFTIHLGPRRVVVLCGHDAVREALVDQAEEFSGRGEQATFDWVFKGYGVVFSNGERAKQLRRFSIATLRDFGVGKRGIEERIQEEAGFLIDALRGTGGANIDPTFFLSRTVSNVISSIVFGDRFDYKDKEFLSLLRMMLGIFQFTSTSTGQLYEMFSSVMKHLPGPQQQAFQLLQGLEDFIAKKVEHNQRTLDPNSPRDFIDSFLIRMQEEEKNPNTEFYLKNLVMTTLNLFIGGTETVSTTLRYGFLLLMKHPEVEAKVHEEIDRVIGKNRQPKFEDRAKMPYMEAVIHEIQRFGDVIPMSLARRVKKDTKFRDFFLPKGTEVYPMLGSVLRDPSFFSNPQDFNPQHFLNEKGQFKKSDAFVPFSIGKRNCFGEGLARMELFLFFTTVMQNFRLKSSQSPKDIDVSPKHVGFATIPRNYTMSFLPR
As to the kind of experiment: Inhibition of CYP2A6 in human liver microsomes assessed as inhibition of coumarin 7-hydroxylation after 10 mins by plate reader.

Data set [2] concerns the target T1, Cytochrome P450 2A6. Description: Inhibition of CYP2A6 in human liver microsomes assessed as inhibition of coumarin 7-hydroxylation after 30 mins preincubation by plate reader. For orientation: Liver microsomes are vesicles of endoplasmic reticulum, rich in cytochrome P450 enzymes.
Data set [3] deals with T1, Cytochrome P450 2A6. Description: Irreversible inhibition of CYP2A6 in human liver microsomes assessed as coumarin 7-hydroxylation activity after 1 to 5 mins in presence of NADPH.
Data set [4] concerns the target T1, Cytochrome P450 2A6. Description: (§1) Irreversible inhibition of CYP2A6 in human liver microsomes assessed as coumarin 7-hydroxylation activity by double reciprocal plot analysis in presence of NADPH.
Another data set has as its target T2, CYP2A6 (Homo sapiens, UniProt P11509).
T2 sequence (P11509 whole entry): T1 sequence (P11509 whole entry)
The description is as §1. To be noted: human, liver microsomes, probe coumarin (7-hydroxylation).

The target in data set [5] is T1, Cytochrome P450 2A6. Description: Irreversible inhibition of CYP2A6 in human liver microsomes assessed as coumarin 7-hydroxylation activity in presence of NADPH. To be noted: TDE = time-dependent effect.

Turning to `N#Cc1ccc(C=O)cc1`, the half-inhibitory concentration (IC50) at Cytochrome P450 2A6 [1] is over 100 µM. Turning to `NCc1ccc2sccc2c1`, the 50% inhibitory concentration (IC50) is 0.6 µM at Cytochrome P450 2A6 [2] and 1.7 µM on Cytochrome P450 2A6 [1]. On to `Brc1cccc2[nH]ccc12`, for which, at Cytochrome P450 2A6 [1], the half-inhibitory concentration (IC50) is over 100 µM.

As for `Brc1ccc2[nH]ccc2c1`, the half-maximal inhibitory concentration (IC50) at Cytochrome P450 2A6 [1] was 6.4 µM. Turning to `N#CCSc1nnc(N)s1`, the IC50 on Cytochrome P450 2A6 [1] was over 100 µM. On to `O=Cc1csc2ccccc12`, for which the half-maximal inhibitory concentration (IC50) on Cytochrome P450 2A6 [2] is 0.05 µM; on Cytochrome P450 2A6 [1] it was 1.6 µM. The “inhibition (INH)” value is listed as “Dose-dependent effect” at Cytochrome P450 2A6 [3] and “tde” at Cytochrome P450 2A6 [5]. In addition, on Cytochrome P450 2A6 [4], the Ki was determined as 29 µM. The kinact at CYP2A6 was 0.006 s⁻¹. `NCc1csc2ccccc12`: the IC50 at Cytochrome P450 2A6 [2] was 0.2 µM; at Cytochrome P450 2A6 [1], 1.5 µM. Take `NCc1cc2ccccc2s1`: the IC50 on Cytochrome P450 2A6 [1] was found to be 0.1 µM. Take `N#Cc1c(Cl)cccc1OCC(F)(F)F`: the IC50 at Cytochrome P450 2A6 [1] is over 100 µM. As for `O=C(O)c1cc2ccccc2s1`, at Cytochrome P450 2A6 [1], the IC50 is over 100 µM. Still for that read-out and setting: under `O=Cc1ccc(-c2cccs2)cc1` stands over 100 µM.

The values above are taken from ChEMBL document CHEMBL1921768, “Identification of novel CYP2A6 inhibitors by virtual screening” (Bioorg Med Chem, 2011).
